Data published in US20100160295A1, “TREATMENT OF RESTLESS LEG SYNDROME AND SLEEP DISORDERS” (SYNOSIA THERAPEUTICS, priority 2008, published 2010).

System: Subjects with RLS
Experiment: Medical Outcomes Study (MOS) Sleep Scale, placebo-controlled study in RLS subjects
Format: in vivo, human
Procedure: The study multi-centre, randomized, double-blind, parallel-groups, placebo-controlled study with 2 treatment arms, oral HPPD inhibitor (2-(2-nitro-4-trifluoromethylbenzoyl)-1,3-cyclohexanedione) and placebo. Subjects were randomized to either treatment with an HPPD inhibitor or placebo in a 2:1 ratio. The subjects were dosed with 4 mg on day 1, and 2 mg/day on days 2-14. The total duration of treatment with study drug for each subject was 14 consecutive days ending at the day of the final sleep lab assessment (Day 14), with a follow-up examination 29 days after Baseline.
Efficacy parameters were changes between Baseline and end of treatment in objective measures of Periodic Limb Movements (PLM) and sleep efficiency and in investigator evaluations of severity of RLS symptoms as well as in subject's report on severity of RLS symptoms, sleep disturbances and depressive feelings. Parameters measured included: • Periodic Limb Movement (PLM) Index, defined as the number of PLM events occurring during time-in-bed (PLMI/h TIB) • Periodic Limb Movements during Sleep Index, defined as the number of PLMs per hour of total sleep time (PLMSI/h TST) • PLM arousal index, defined as the number of PLM with arousals per hour of total sleep time (PLMSAI/h TST) • Periodic Limb Movements during wakefulness index, defined as the number of PLMs per hour occurring during wakefulness within time-in-bed (PLMWI/h TIB) • Sleep Efficiency (SE) expressed as the percentage total sleep time (TST) of total time in bed (TIB) • Total Sleep Time (TST) • Total number of arousals per TST • Sleep latency • Restless Legs Scale—6 items (RLS-6) (Kohnen et al, 2004) • IRLS total score change from start of treatment to end • Time to requiring rescue medication (defined as time to dropout due to the need of rescue medication for intolerable RLS symptoms) • Physicians' Global Impression, rated by the Clinical Global Impressions Scale (CGI): severity, change and treatment effect • CGI responders defined as the proportion of subjects who improved “much” or “very much” on CGI item “change”. • Patients' Global Impression (PGI) scale Item 1 (efficacy) • Medical Outcomes Study (MOS) Sleep Scale • Beck Depression Inventory (BDI) • In addition, a patient diary was to be completed between days 8 and 15 • HPPD inhibitor plasma concentrations at Baseline, end of treatment and follow-up • Tyrosine plasma concentration at Baseline, end of treatment and follow-up.
Subjects with RLS received either placebo (7 subjects) or an HPPD inhibitor (13 subjects) given as 4 mg on day 1, then 2 mg per day for days 2-14 of the trial. Various parameters relevant to RLS were monitored during the course of treatment, in particular the quality of their sleep patterns using a standard assessment scale (Medical Outcomes Study (MOS) Sleep Scale). Individuals were asked to complete a standard evaluation of their ‘normal’ sleep experience at the start of the trial (Baseline) and again at the end of treatment (EoT), with the various parameters scored according to the attached document.
The MOS Sleep Scale is a comprehensive subject completed sleep questionnaire consisting of 12 items (Hays and Stewart, 1992; Hays et al., 2005). Each item measures a unique aspect or characteristic of sleep. Overall, the MOS Sleep Scale measures the following:
All items, except for item 2, were transformed in a ‘0-100’ scale.
For the analysis of the MOS sleep scale, the following subscales were determined as means of the involved items (in part, after reversing the ratings in the ‘0-100’ scale, denoted by (R) in the item sequence):
Subjects self-reported the length of time it took for them to fall asleep and the average number of hours of sleep each night. Scores for all other items range from 1 (all of the time) to 6 (none of the time).
The MOS Sleep Scale was completed at Baseline (Visit 2) and final examination (Visit 3).

[1] = EoT Visit, M-ITT, none of the placebo patients
[2] = EoT, PPS n = 13, 4 mg day 1, 2 mg/day days 2-14
[3] = EoT, PPS n = 13, item 2 raw scores
[4] = M-ITT, HPPD inhibitor vs placebo
[5] = change from Baseline to EoT, PPS n = 13

## O=C1CCCC(=O)C1C(=O)c1ccc(C(F)(F)F)cc1[N+](=O)[O-] [HPPD Inhibitor, 2-(2-nitro-4-trifluoromethylbenzoyl)-1,3-cyclohexanedione]
[1]
  patients reporting optimal sleep (7-8 hours), number: 5 patients
  patients reporting optimal sleep (7-8 hours), percentage: 35.7%
EoT Visit, PPS
  patients reporting optimal sleep (7-8 hours), number: 4 patients
EoT, PPS n = 13
  MOS Short of Breath Scale, absolute, Median: 0.0
  MOS Short of Breath Scale, absolute, Range: 0.0-40.0
  MOS Sleep Adequacy Scale, absolute, Median: 50.0
  MOS Sleep Adequacy Scale, absolute, Range: 0.0-80.0
  MOS Sleep Problems Index I, absolute, Median: 33.3
  MOS Sleep Problems Index I, absolute, Range: 10.0-70.0
  MOS Sleep Problems Index II, absolute, Median: 32.8
  MOS Sleep Problems Index II, absolute, Range: 11.1-74.4
  MOS Snoring Scale, absolute, Median: 20.0
  MOS Snoring Scale, absolute, Range: 0.0-40.0
  MOS Somnolence Scale, absolute, Median: 13.3
  MOS Somnolence Scale, absolute, Range: 6.7-66.7
[2]
  MOS Short of Breath Scale, absolute, M ± SD: 9.2 ± 15.5
  MOS Sleep Disturbance Scale, absolute, Median: 43.8
  MOS Sleep Disturbance Scale, absolute, Range: 10.0-72.5
  MOS Sleep Problems Index I, absolute, M ± SD: 36.7 ± 16.3
  MOS Sleep Problems Index II, absolute, M ± SD: 37.9 ± 16.8
  MOS Snoring Scale, absolute, M ± SD: 20.0 ± 16.3
  MOS Somnolence Scale, absolute, M ± SD: 24.6 ± 19.7
EoT, PPS n = 13, 4 mg day 1, 2 mg/day days 2-14, 0-100 scale, higher = stronger sleep problems
  MOS Sleep Disturbance Scale, absolute, M ± SD: 41.8 ± 16.7
EoT, PPS n = 13, 4 mg day 1, 2 mg/day days 2-14, higher values = better
  MOS Sleep Adequacy Scale, absolute, M ± SD: 46.9 ± 25.9
[3]
  MOS Sleep Quantity, absolute, Median: 6.0 h
  MOS Sleep Quantity, absolute, Range: 4.0 to 8.0 h
EoT, PPS n = 13, item 2 raw scores, 4 mg day 1, 2 mg/day days 2-14
  MOS Sleep Quantity, absolute, M ± SD: 6.1 ± 1.0 h
M-ITT, 95%-CI: 1.30, 52.64, p=0.0405 two-sided from ANCOVA
  MOS sleep adequacy: difference HPPD inhibitor—placebo, LS mean: 26.97
M-ITT, 95%-CI: −35.53, 0.93, p=0.0616 two-sided from ANCOVA
  MOS sleep disturbance: difference HPPD inhibitor—placebo, LS mean: −17.30
M-ITT, 95%-CI: −36.18, 2.61, p=0.0857 two-sided from ANCOVA
  MOS sleep problems index II: difference HPPD inhibitor—placebo, LS mean: −16.78
M-ITT, 95%-CI: −37.80, 0.31, p=0.0534 two-sided from ANCOVA
  MOS sleep problems index I: difference HPPD inhibitor—placebo, LS mean: −18.75
[4]
  MOS sleep adequacy: effect size d: 0.50
  MOS sleep disturbance: effect size d: 0.55
  MOS sleep problems index I: effect size d: 0.54
  MOS sleep problems index II: effect size d: 0.41
[5]
  MOS Short of Breath Scale, change, M ± SD: −7.7 ± 19.2
  MOS Short of Breath Scale, change, Median: 0.0
  MOS Short of Breath Scale, change, Range: −40.0-20.0
  MOS Sleep Adequacy Scale, change, M ± SD: 26.9 ± 35.5
  MOS Sleep Adequacy Scale, change, Median: 30.0
  MOS Sleep Adequacy Scale, change, Range: −50.0-80.0
  MOS Sleep Disturbance Scale, change, M ± SD: −35.0 ± 27.5
